According to ChEMBL document CHEMBL4665624, “Synthesis of 5-(4-(1H-phenanthro[9,10-d]imidazol-2-yl)benzylidene)thiazolidine-2,4-dione as promising DNA and serum albumin-binding agents and evaluation of antitumor activity” (Eur J Med Chem, 2019):

Assays:
RPMI-8226 = test: Antitumor activity against human RPMI8226 cells assessed as cell growth inhibition at 10 uM incubated for 48 hrs by sulforhodamine B assay; assay type: functional; conditions: read-out: GI
MCF7 = test: Antitumor activity against human MCF7 cells assessed as cell growth inhibition at 10 uM incubated for 48 hrs by sulforhodamine B assay; assay type: functional; conditions: read-out: GI
SK-MEL-28 = test: Antitumor activity against human SK-MEL-28 cells assessed as cell growth inhibition at 10 uM incubated for 48 hrs by sulforhodamine B assay; assay type: functional; conditions: read-out: GI
MDA-MB-231 = test: Antitumor activity against human MDA-MB-231/ATCC cells assessed as cell growth inhibition at 10 uM incubated for 48 hrs by sulforhodamine B assay; assay type: functional; conditions: read-out: GI
NCI-H226 = test: Antitumor activity against human NCI-H226 assessed as cell growth inhibition at 10 uM incubated for 48 hrs by sulforhodamine B assay; assay type: functional; conditions: read-out: GI
KM12 = test: Antitumor activity against human KM12 cells assessed as cell growth inhibition at 10 uM incubated for 48 hrs by sulforhodamine B assay; assay type: functional; conditions: read-out: GI
PC-3 = test: Antitumor activity against human PC-3 cells assessed as cell growth inhibition at 10 uM incubated for 48 hrs by sulforhodamine B assay; assay type: functional; conditions: read-out: GI
HCT-15 = test: Antitumor activity against human HCT15 cells assessed as cell growth inhibition at 10 uM incubated for 48 hrs by sulforhodamine B assay; assay type: functional; conditions: read-out: GI
HOP-92 = test: Antitumor activity against human HOP92 cells assessed as cell growth inhibition at 10 uM incubated for 48 hrs by sulforhodamine B assay; assay type: functional; conditions: read-out: GI
IGROV-1 = test: Antitumor activity against human IGROV1 cells assessed as cell growth inhibition at 10 uM incubated for 48 hrs by sulforhodamine B assay; assay type: functional; conditions: read-out: GI
HT-29 = test: Antitumor activity against human HT-29 cells assessed as cell growth inhibition at 10 uM incubated for 48 hrs by sulforhodamine B assay; assay type: functional; conditions: read-out: GI
MOLT-4 = test: Antitumor activity against human MOLT4 cells assessed as cell growth inhibition at 10 uM incubated for 48 hrs by sulforhodamine B assay; assay type: functional; conditions: read-out: GI
ACHN = test: Antitumor activity against human ACHN cells assessed as cell growth inhibition at 10 uM incubated for 48 hrs by sulforhodamine B assay; assay type: functional; conditions: read-out: GI
OVCAR-4 = test: Antitumor activity against human OVCAR-4 cells assessed as cell growth inhibition at 10 uM incubated for 48 hrs by sulforhodamine B assay; assay type: functional; conditions: read-out: GI
NCI-H23 = test: Antitumor activity against human NCI-H23 cells assessed as cell growth inhibition at 10 uM incubated for 48 hrs by sulforhodamine B assay; assay type: functional; conditions: read-out: GI
UACC-62 = test: Antitumor activity against human UACC-62 cells assessed as cell growth inhibition at 10 uM incubated for 48 hrs by sulforhodamine B assay; assay type: functional; conditions: read-out: GI
OVCAR-8 = test: Antitumor activity against human OVCAR-8 cells assessed as cell growth inhibition at 10 uM incubated for 48 hrs by sulforhodamine B assay; assay type: functional; conditions: read-out: GI
HL-60(TB) = test: Antitumor activity against human HL-60(TB) cells assessed as cell growth inhibition at 10 uM incubated for 48 hrs by sulforhodamine B assay; assay type: functional; conditions: read-out: GI
U-251 = test: Antitumor activity against human U251 cells assessed as cell growth inhibition at 10 uM incubated for 48 hrs by sulforhodamine B assay; assay type: functional; conditions: read-out: GI
NCI-H460 = test: Antitumor activity against human NCI-H460 assessed as cell growth inhibition at 10 uM incubated for 48 hrs by sulforhodamine B assay; assay type: functional; conditions: read-out: GI
NCI-H522 = test: Antitumor activity against human NCI-H522 cells assessed as cell growth inhibition at 10 uM incubated for 48 hrs by sulforhodamine B assay; assay type: functional; conditions: read-out: GI
Malme-3M = test: Antitumor activity against human MALME-3M cells assessed as cell growth inhibition at 10 uM incubated for 48 hrs by sulforhodamine B assay; assay type: functional; conditions: read-out: GI
A498 = test: Antitumor activity against human A498 cells assessed as cell growth inhibition at 10 uM incubated for 48 hrs by sulforhodamine B assay; assay type: functional; conditions: read-out: GI
UO-31 = test: Antitumor activity against human UO-31 cells assessed as cell growth inhibition at 10 uM incubated for 48 hrs by sulforhodamine B assay; assay type: functional; conditions: read-out: GI
EKVX = test: Antitumor activity against human EKVX cells assessed as cell growth inhibition at 10 uM incubated for 48 hrs by sulforhodamine B assay; assay type: functional; conditions: read-out: GI
OVCAR-3 = test: Antitumor activity against human OVCAR-3 cells assessed as cell growth inhibition at 10 uM incubated for 48 hrs by sulforhodamine B assay; assay type: functional; conditions: read-out: GI
Hs-578T = test: Antitumor activity against human HS 578T cells assessed as cell growth inhibition at 10 uM incubated for 48 hrs by sulforhodamine B assay; assay type: functional; conditions: read-out: GI
SNB-75 = test: Antitumor activity against human SNB-75 cells assessed as cell growth inhibition at 10 uM incubated for 48 hrs by sulforhodamine B assay; assay type: functional; conditions: read-out: GI
HCT-116 = test: Antitumor activity against human HCT116 cells assessed as cell growth inhibition at 10 uM incubated for 48 hrs by sulforhodamine B assay; assay type: functional; conditions: read-out: GI
MDA-MB-468 = test: Antitumor activity against human MDA-MB-468 cells assessed as cell growth inhibition at 10 uM incubated for 48 hrs by sulforhodamine B assay; assay type: functional; conditions: read-out: GI
NCI/ADR-RES = test: Antitumor activity against human NCI/ADR-RES cells assessed as cell growth inhibition at 10 uM incubated for 48 hrs by sulforhodamine B assay; assay type: functional; conditions: read-out: GI
MDA-MB-435 = test: Antitumor activity against human MDA-MB-435 cells assessed as cell growth inhibition at 10 uM incubated for 48 hrs by sulforhodamine B assay; assay type: functional; conditions: read-out: GI
LOX IMVI = test: Antitumor activity against human LOX IMVI cells assessed as cell growth inhibition at 10 uM incubated for 48 hrs by sulforhodamine B assay; assay type: functional; conditions: read-out: GI
786-0 = test: Antitumor activity against human 786-0 cells assessed as cell growth inhibition at 10 uM incubated for 48 hrs by sulforhodamine B assay; assay type: functional; conditions: read-out: GI
SW-620 = test: Antitumor activity against human SW620 cells assessed as cell growth inhibition at 10 uM incubated for 48 hrs by sulforhodamine B assay; conditions: SW-620, 48 h, read-out: GI
RXF 393 = test: Antitumor activity against human RXF 393 cells assessed as cell growth inhibition at 10 uM incubated for 48 hrs by sulforhodamine B assay; assay type: functional; conditions: read-out: GI
SF-295 = test: Antitumor activity against human SF295 cells assessed as cell growth inhibition at 10 uM incubated for 48 hrs by sulforhodamine B assay; assay type: functional; conditions: read-out: GI
SK-OV-3 = test: Antitumor activity against human SK-OV-3 cells assessed as cell growth inhibition at 10 uM incubated for 48 hrs by sulforhodamine B assay; assay type: functional; conditions: read-out: GI
COLO 205 = test: Antitumor activity against human COLO205 cells assessed as cell growth inhibition at 10 uM incubated for 48 hrs by sulforhodamine B assay; assay type: functional; conditions: read-out: GI
CCRF-CEM = test: Antitumor activity against human CCRF-CEM cells assessed as cell growth inhibition at 10 uM incubated for 48 hrs by sulforhodamine B assay; assay type: functional; conditions: read-out: GI
SF-268 = test: Antitumor activity against human SF268 cells assessed as cell growth inhibition at 10 uM incubated for 48 hrs by sulforhodamine B assay; assay type: functional; conditions: read-out: GI
HCC 2998 = test: Antitumor activity against human HCC2998 cells assessed as cell growth inhibition at 10 uM incubated for 48 hrs by sulforhodamine B assay; assay type: functional; conditions: read-out: GI
K562 = test: Antitumor activity against human K562 cells assessed as cell growth inhibition at 10 uM incubated for 48 hrs by sulforhodamine B assay; assay type: functional; conditions: read-out: GI
M14 = test: Antitumor activity against human M14 cells assessed as cell growth inhibition at 10 uM incubated for 48 hrs by sulforhodamine B assay; assay type: functional; conditions: read-out: GI
SNB-19 = test: Antitumor activity against human SNB-19 cells assessed as cell growth inhibition at 10 uM incubated for 48 hrs by sulforhodamine B assay; assay type: functional; conditions: read-out: GI
SN12C = test: Antitumor activity against human SN12C cells assessed as cell growth inhibition at 10 uM incubated for 48 hrs by sulforhodamine B assay; assay type: functional; conditions: read-out: GI
BT-549 = test: Antitumor activity against human BT-549 cells assessed as cell growth inhibition at 10 uM incubated for 48 hrs by sulforhodamine B assay; assay type: functional; conditions: read-out: GI
SR = test: Antitumor activity against human SR cells assessed as cell growth inhibition at 10 uM incubated for 48 hrs by sulforhodamine B assay; assay type: functional; conditions: read-out: GI

CCN(CC)c1ccc(-c2nc3c4ccccc4c4ccccc4c3[nH]2)c(O)c1
inhibition of growth at 10 µM (RPMI-8226): < 10% | inhibition of growth at 10 µM (MCF7): 23.8% | inhibition of growth at 10 µM (SK-MEL-28): < 10% | inhibition of growth at 10 µM (MDA-MB-231): 19.4% | inhibition of growth at 10 µM (NCI-H226): < 10% | inhibition of growth at 10 µM (KM12): < 10% | inhibition of growth at 10 µM (PC-3): < 10% | inhibition of growth at 10 µM (HCT-15): 13.8% | inhibition of growth at 10 µM (HOP-92): 24.2% | inhibition of growth at 10 µM (IGROV-1): < 10% | inhibition of growth at 10 µM (HT-29): < 10% | inhibition of growth at 10 µM (MOLT-4): < 10% | inhibition of growth at 10 µM (ACHN): < 10% | inhibition of growth at 10 µM (OVCAR-4): < 10% | inhibition of growth at 10 µM (NCI-H23): < 10% | inhibition of growth at 10 µM (UACC-62): 20.1% | inhibition of growth at 10 µM (OVCAR-8): < 10% | inhibition of growth at 10 µM (HL-60(TB)): < 10% | inhibition of growth at 10 µM (U-251): < 10% | inhibition of growth at 10 µM (NCI-H460): < 10% | inhibition of growth at 10 µM (NCI-H522): 10.4% | inhibition of growth at 10 µM (Malme-3M): < 10% | inhibition of growth at 10 µM (A498): < 10% | inhibition of growth at 10 µM (UO-31): 24.4% | inhibition of growth at 10 µM (EKVX): 18.2% | inhibition of growth at 10 µM (OVCAR-3): < 10% | inhibition of growth at 10 µM (Hs-578T): < 10% | inhibition of growth at 10 µM (SNB-75): < 10% | inhibition of growth at 10 µM (HCT-116): < 10% | inhibition of growth at 10 µM (MDA-MB-468): < 10% | inhibition of growth at 10 µM (NCI/ADR-RES): < 10% | inhibition of growth at 10 µM (MDA-MB-435): < 10% | inhibition of growth at 10 µM (LOX IMVI): 11.7% | inhibition of growth at 10 µM (786-0): < 10% | inhibition of growth at 10 µM (SW-620): < 10% | inhibition of growth at 10 µM (RXF 393): < 10% | inhibition of growth at 10 µM (SF-295): < 10% | inhibition of growth at 10 µM (SK-OV-3): 10.1% | inhibition of growth at 10 µM (COLO 205): < 10% | inhibition of growth at 10 µM (CCRF-CEM): < 10% | inhibition of growth at 10 µM (SF-268): < 10% | inhibition of growth at 10 µM (HCC 2998): < 10% | inhibition of growth at 10 µM (K562): 20.5% | inhibition of growth at 10 µM (M14): < 10% | inhibition of growth at 10 µM (SNB-19): < 10% | inhibition of growth at 10 µM (SN12C): < 10% | inhibition of growth at 10 µM (BT-549): < 10% | inhibition of growth at 10 µM (SR): 15.8%
